# Measurements published in US20240358692A1, “TREATMENT OF SCLERODERMA” (Aisa Pharma, Inc., priority 2023, published 2024).
# Legend:
# participants with SSc-RP [1] = experiment: SHAQ - Visual Analog Scale - Pain; assay type: in vivo, human
# From the text: The standard, validated, patient reported outcome measures tool for SSc patients, the Scleroderma Health Assessment Questionnaire (SHAQ), will be used to assess the participant qualify of life. Details are attached in the Appendix. The participant quality of life will be scored, and a disability index calculated for each questionnaire completed by the patient at Screening and each in-clinic visit. The absolute change in participant quality of life from baseline to the end of each dosing period will be calculated similar to frequency data as before.
# The standard, validated, patient reported outcome measures tool for SSc patients, the SHAQ, was collected at the time points specified in the study schedules (FIG. 2 and FIGS. 4A and 4B) to assess the participant's quality of life. The SHAQ included a Raynaud's VAS that will also be reported separately.
# Pain on the SHAQ outcome measure on the first line in table F is a composite of all pain experienced in patients with SSc, comprising joint pain, back pain, headache, odynophagia, skin ulcer related discomfort, Raynaud's, and neuropathic pain. Aisa Pharma believes, based on the biologic attributes and actions of cilnidipine that differ from most dihydropyridine calcium channel antagonists that cilnidipine might have direct analgesic effects in certain pain conditions and in fact has been designated to receive evaluation through the […] Preclinical Pain Screening Platform Program to investigate the drug in multiple in vitro and in vivo preclinical models of pain that are validated and predictive of effects in man.
# participants with SSc-RP [2] = experiment: Average duration of weekly RP attacks (minutes), patient diary; assay type: in vivo, human; details: Tadalafil 5 mg
# From the text: The absolute change in average duration of weekly RP attacks from baseline to the end of each dosing period was and will be a secondary outcome variable. The sponsor-developed participant-informed diary was and will be used to record data. Average duration of weekly RP attacks is defined as the total duration of RP attacks divided by total number of RP attacks within the last 7 days of each dosing period. Total duration of RP attacks during the last 7 days of screening period divided by the total number of RP attacks will be used as baseline for the analysis of all periods. The variable will be calculated similar to frequency data as before.
# [3] = Modified ITT Population-Part A, Day 12, dose cilnidipine 10 mg, tadalafil 5 mg, alone or combined as labelled
# [4] = Tadalafil 5 mg, SSc patients, PP, Part A
# [5] = Excluding Outliers, ITT Population - Part A, last 7 days of dosing period
# [6] = by Baseline RCS, second RCS subgroup of table (not named), ITT Population - Part A
# [7] = excluding outliers, 2nd baseline RCS subgroup, ITT Part A
# [8] = last 7 days of dosing period, ITT Part A
smiles,measurement,setting,value
CN1CC(=O)N2[C@H](c3ccc4c(c3)OCO4)c3[nH]c4ccccc4c3C[C@@H]2C1=O [Tadalafil],"Visual Analog Scale-Pain, Change from Baseline, Mean",participants with SSc-RP [1]; [3],1.000
same,"Visual Analog Scale-Pain, Change from Baseline, Median",participants with SSc-RP [1]; [3],0.800
same,"Visual Analog Scale-Pain, In Clinic Visit (Day 12), Mean","participants with SSc-RP [1]; Modified ITT Population-Part A, dose cilnidipine 10 mg, tadalafil 5 mg, alone or combined as labelled",5.300
same,"SHAQ VAS Pain, Change from Baseline, Max",participants with SSc-RP [1]; [4],1.50
same,"SHAQ VAS Pain, Change from Baseline, Mean",participants with SSc-RP [1]; [4],1.000
same,"SHAQ VAS Pain, Change from Baseline, Median",participants with SSc-RP [1]; [4],0.800
same,"SHAQ VAS Pain, Change from Baseline, Min",participants with SSc-RP [1]; [4],"0.70,"
same,"SHAQ VAS Pain, Change from Baseline, Q1",participants with SSc-RP [1]; [4],"0.700,"
same,"SHAQ VAS Pain, Change from Baseline, Q3",participants with SSc-RP [1]; [4],1.500
same,"SHAQ VAS Pain, Day 12, Max",participants with SSc-RP [1]; [4],9.20
same,"SHAQ VAS Pain, Day 12, Mean",participants with SSc-RP [1]; [4],5.300
same,"SHAQ VAS Pain, Day 12, Median",participants with SSc-RP [1]; [4],5.850
same,"SHAQ VAS Pain, Day 12, Min",participants with SSc-RP [1]; [4],"0.30,"
same,"SHAQ VAS Pain, Day 12, Q1",participants with SSc-RP [1]; [4],"1.900,"
same,"SHAQ VAS Pain, Day 12, Q3",participants with SSc-RP [1]; [4],8.700
same,"SHAQ VAS Pain, Percent Change from Baseline, Max",participants with SSc-RP [1]; [4],75.0
same,"SHAQ VAS Pain, Percent Change from Baseline, Mean",participants with SSc-RP [1]; [4],31.35
same,"SHAQ VAS Pain, Percent Change from Baseline, Median",participants with SSc-RP [1]; [4],10.81
same,"SHAQ VAS Pain, Percent Change from Baseline, Min",participants with SSc-RP [1]; [4],"8.2,"
same,"SHAQ VAS Pain, Percent Change from Baseline, Q1",participants with SSc-RP [1]; [4],"8.24,"
same,"SHAQ VAS Pain, Percent Change from Baseline, Q3",participants with SSc-RP [1]; [4],75.00
same,"Average Duration of Weekly RP Attacks (All Attacks), Mean",participants with SSc-RP [2]; [5],5.95 min
same,"Average Duration of Weekly RP Attacks (All Attacks), Median",participants with SSc-RP [2]; [5],5.95 min
same,"Change from Baseline in average duration of weekly symptomatic RP attacks, Mean",participants with SSc-RP [2]; [6],140.74 min
same,"Change from Baseline in average duration of weekly symptomatic RP attacks, Median",participants with SSc-RP [2]; [6],140.74 min
same,"Percent Change from Baseline in average duration of weekly symptomatic RP attacks, Mean",participants with SSc-RP [2]; [6],5.21%
same,"Percent Change from Baseline in average duration of weekly symptomatic RP attacks, Median",participants with SSc-RP [2]; [6],5.21%
same,"Average duration of weekly RP attacks, Change from Baseline, Mean",participants with SSc-RP [2]; [7],-4.98 min
same,"Average duration of weekly RP attacks, Change from Baseline, Median",participants with SSc-RP [2]; [7],-4.98 min
same,"Average duration of weekly RP attacks, Percent Change from Baseline, Mean",participants with SSc-RP [2]; [7],−45.55%
same,"Average duration of weekly RP attacks, Percent Change from Baseline, Median",participants with SSc-RP [2]; [7],−45.55%
same,"Average Duration of weekly symptomatic RP attacks, Mean",participants with SSc-RP [2]; [8],412.29 min
same,"Average Duration of weekly symptomatic RP attacks, Median",participants with SSc-RP [2]; [8],412.29 min
